Tested on: A375-NRAS^Q61K cells
Test: CTGlo Cell Viability Assay, A375-NRAS^Q61K (A375.11) cells, 96 hours
Format: cell-based, human
Conditions: A375.11 (A375-NRAS^Q61K) cells; for Emax: lowest % viability achieved
In short: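 Viability as CellTiter-Glo ATP luminescence after 96 h compound exposure at 37 °C; A375.11 (BRAF V600E/NRAS Q61K) cells at 250/well, top final concentration 10 μM in half-log steps. Signal was background-corrected and set relative to DMSO controls. A 4-parameter logistic fit gave GI50 (50% crossing) and Emax.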

Compound: CO[C@@H]1CCN(S(=O)(=O)Nc2ccc(F)c(Oc3ccc4ncn([C@H]5COC6(CCN(C7CCC(c8ccc(NC9CCC(=O)NC9=O)cc8F)CC7)CC6)C5)c(=O)c4c3)c2C#N)C1 (single isomer, unassigned) [Compound 109]
- GI50 (Homo sapiens, 96 h): < 1000 nM
- Emax (Homo sapiens, 96 h): < 50%

Compound: CCN(C)S(=O)(=O)Nc1ccc(F)c(Oc2ccc3ncn([C@H]4COC5(CCC(N6CCN(c7ccc(NC8CCC(=O)NC8=O)cc7F)CC6)CC5)C4)c(=O)c3c2)c1C#N (stereo partly drawn) [Compound 40, 6-[2-cyano-3-[[ethyl(methyl)sulfamoyl]amino]-6-fluoro-phenoxy]-3-[(3R)-8-[4-[4-[(2,6-dioxo-3-piperidyl)amino]-2-fluoro-phenyl]piperazin-1-yl]-1-oxaspiro[4.5]decan-3-yl]-4-oxo-quinazoline]
- GI50 (Homo sapiens, 96 h): 1000 to 10000 nM
- Emax (Homo sapiens, 96 h): 50 to 90%

Compound: CO[C@@H]1CCN(S(=O)(=O)Nc2ccc(F)c(Oc3ccc4ncn(C5CC6(CCN(C7CCC(c8cc9c(cc8F)c(N8CCC(=O)NC8=O)nn9C)CC7)CC6)C5)c(=O)c4c3)c2C#N)C1 (single isomer, unassigned) [Compound 101]
- GI50 (Homo sapiens, 96 h): < 1000 nM
- Emax (Homo sapiens, 96 h): < 50%

Compound: CCN(C)S(=O)(=O)Nc1ccc(F)c(Oc2ccc3ncn([C@@H]4C[C@@H]5CN(C6CCC(c7ccc(NC8CCC(=O)NC8=O)cc7F)CC6)C[C@@H]5C4)c(=O)c3c2)c1C#N (single isomer, unassigned) [Compound 21]
- GI50 (Homo sapiens, 96 h): 1000 to 10000 nM
- Emax (Homo sapiens, 96 h): 50 to 90%

Compound: CCN(C)S(=O)(=O)Nc1ccc(F)c(Oc2ccc3ncn([C@H]4CCC5(CCN(C6CCC(c7ccc(NC8CCC(=O)NC8=O)cc7F)CC6)CC5)C4)c(=O)c3c2)c1C#N (single isomer, unassigned) [Compound 24]
- GI50 (Homo sapiens, 96 h): < 1000 nM
- Emax (Homo sapiens, 96 h): < 50%

Compound: CCN(C)S(=O)(=O)Nc1ccc(F)c(Oc2ccc3ncn([C@H]4COC5(CCN(C6CCC(c7ccc(NC8CCC(=O)NC8=O)cc7F)CC6)CC5)C4)c(=O)c3c2)c1F (single isomer, unassigned) [Compound 78]
- GI50 (Homo sapiens, 96 h): < 1000 nM
- Emax (Homo sapiens, 96 h): < 50%

Compound: CC(C)S(=O)(=O)Nc1ccc(F)c(Oc2ccc3ncn([C@H]4COC5(CCN(C6CCC(c7ccc(NC8CCC(=O)NC8=O)cc7F)CC6)CC5)C4)c(=O)c3c2)c1C#N (single isomer, unassigned) [Compound 92]
- GI50 (Homo sapiens, 96 h): < 1000 nM
- Emax (Homo sapiens, 96 h): < 50%

Compound: CC(C)S(=O)(=O)Nc1ccc(F)c(Oc2ccc3ncn(C4CC5(CCN(C6CCC(c7cc8c(cc7F)c(N7CCC(=O)NC7=O)nn8C)CC6)CC5)C4)c(=O)c3c2)c1C#N (single isomer, unassigned) [Compound 95, N-[2-cyano-3-[3-[7-[4-[3-(2,4-dioxohexahydropyrimidin-1-yl)-5-fluoro-1-methyl-indazol-6-yl]cyclohexyl]-7-azaspiro[3.5]nonan-2-yl]-4-oxo-quinazolin-6-yl]oxy-4-fluoro-phenyl]propane-2-sulfonamide]
- GI50 (Homo sapiens, 96 h): < 1000 nM
- Emax (Homo sapiens, 96 h): 50 to 90%

Compound: CCN(C)S(=O)(=O)Nc1ccc(F)c(Oc2ccc3ncc([C@H]4COC5(CCN(C6CCC(c7cc8c(cc7F)c(N7CCC(=O)NC7=O)nn8C)CC6)CC5)C4)nc3c2)c1C#N (single isomer, unassigned) [Compound 48]
- GI50 (Homo sapiens, 96 h): < 1000 nM
- Emax (Homo sapiens, 96 h): < 50%

Compound: CCN(C)S(=O)(=O)Nc1ccc(F)c(Nc2ccc3ncn([C@@H]4COC5(CCN(C6CCC(c7ccc(NC8CCC(=O)NC8=O)cc7F)CC6)CC5)C4)c(=O)c3c2F)c1C#N (single isomer, unassigned) [Compound 90]
- GI50 (Homo sapiens, 96 h): < 1000 nM
- Emax (Homo sapiens, 96 h): 50 to 90%

Compound: CCN(C)S(=O)(=O)Nc1ccc(F)c(Oc2ccc3ncn(C4CC5(CCN(C6CCC(c7cc8c(cc7F)c(N7CCC(=O)NC7=O)nn8C)CC6)CC5)C4)c(=O)c3c2)c1F (single isomer, unassigned) [Compound 178, 3-[7-[4-[3-(2,4-dioxohexahydropyrimidin-1-yl)-5-fluoro-1-methyl-indazol-6-yl]cyclohexyl]-7-azaspiro[3.5]nonan-2-yl]-6-[3-[[ethyl(methyl)sulfamoyl]amino]-2,6-difluoro-phenoxy]-4-oxo-quinazoline]
- GI50 (Homo sapiens, 96 h): 1000 to 10000 nM
- Emax (Homo sapiens, 96 h): 50 to 90%

Compound: CCN(C)S(=O)(=O)Nc1ccc(F)c(Oc2ccc3ncn([C@H]4COC5(CCC(N6CC7(CN(c8cc9c(cc8F)c(N8CCC(=O)NC8=O)nn9C)C7)C6)CC5)C4)c(=O)c3c2)c1C#N (stereo partly drawn) [Compound 27, 6-[2-cyano-3-[[ethyl(methyl)sulfamoyl]amino]-6-fluoro-phenoxy]-3-[(3R)-8-[6-[3-(2,4-dioxohexahydropyrimidin-1-yl)-5-fluoro-1-methyl-indazol-6-yl]-2,6-diazaspiro[3.3]heptan-2-yl]-1-oxaspiro[4.5]decan-3-yl]-4-oxo-quinazoline]
- GI50 (Homo sapiens, 96 h): < 1000 nM
- Emax (Homo sapiens, 96 h): < 50%

Compound: CCN(C)S(=O)(=O)Nc1ccc(F)c(Oc2ccc3ncc([C@H]4COC5(CCN(C6CCC(c7ccc(NC8CCC(=O)NC8=O)cc7F)CC6)CC5)C4)nc3c2)c1C#N (single isomer, unassigned) [Compound 58]
- GI50 (Homo sapiens, 96 h): < 1000 nM
- Emax (Homo sapiens, 96 h): < 50%

Compound: CCN(C)S(=O)(=O)Nc1ccc(F)c(Oc2ccc3ncn([C@H]4COC5(CCN(C6CC(c7ccc(NC8CCC(=O)NC8=O)cc7F)C6)CC5)C4)c(=O)c3c2)c1C#N (single isomer, unassigned) [Compound 62]
- GI50 (Homo sapiens, 96 h): < 1000 nM
- Emax (Homo sapiens, 96 h): < 50%

Compound: CCN(C)S(=O)(=O)Nc1ccc(F)c(Oc2ccc3ncn([C@H]4COC5(CCN(C6CCC(c7ccc(N[C@@H]8CCC(=O)NC8=O)cc7F)CC6)CC5)C4)c(=O)c3c2)c1C#N (single isomer, unassigned) [Compound 4]
- GI50 (Homo sapiens, 96 h): < 1000 nM
- Emax (Homo sapiens, 96 h): < 50%

Compound: CCN(C)S(=O)(=O)Nc1ccc(F)c(Oc2ccc3ncn([C@H]4COC5(CCN(C6CCC(c7cc8c(cc7F)c(N7CCC(=O)NC7=O)nn8C)CC6O)CC5)C4)c(=O)c3c2)c1C#N (single isomer, unassigned) [Compound 43]
- GI50 (Homo sapiens, 96 h): < 1000 nM
- Emax (Homo sapiens, 96 h): 50 to 90%

Compound: Cn1nc(N2CCC(=O)NC2=O)c2cc(F)c(C3CCC(N4CCC5(CC4)CC(n4cnc6ccc(Oc7c(F)ccc(NS(=O)(=O)N8CC[C@@H](F)C8)c7C#N)cc6c4=O)C5)CC3)cc21 (single isomer, unassigned) [Compound 122]
- GI50 (Homo sapiens, 96 h): < 1000 nM
- Emax (Homo sapiens, 96 h): < 50%

Compound: CCN(C)S(=O)(=O)Nc1ccc(F)c(Oc2ccc3ncn([C@H]4COC5(CCN(C6CCC(c7cc8c(cc7F)c(N7CCC(=O)NC7=O)nn8C)CC6)CC5)C4)c(=O)c3c2)c1F (single isomer, unassigned) [Compound 71]
- GI50 (Homo sapiens, 96 h): < 1000 nM
- Emax (Homo sapiens, 96 h): < 50%

Compound: Cn1nc(N2CCC(=O)NC2=O)c2cc(F)c(C3CCC(N4CCC5(CC4)C[C@@H](n4cnc6ccc(Oc7c(F)ccc(NS(=O)(=O)N8CC[C@@H](F)C8)c7C#N)cc6c4=O)CO5)CC3)cc21 (single isomer, unassigned) [Compound 121]
- GI50 (Homo sapiens, 96 h): < 1000 nM
- Emax (Homo sapiens, 96 h): < 50%

Compound: CCN(C)S(=O)(=O)Nc1ccc(F)c(Oc2ccc3ncc(OC4CCN(C5CCC(c6ccc(NC7CCC(=O)NC7=O)cc6F)CC5)CC4)nc3c2)c1C#N (single isomer, unassigned) [Compound 110, 7-[2-cyano-3-[[ethyl(methyl)sulfamoyl]amino]-6-fluoro-phenoxy]-2-[[1-[4-[4-[(2,6-dioxo-3-piperidyl)amino]-2-fluoro-phenyl]cyclohexyl]-4-piperidyl]oxy]quinoxaline]
- GI50 (Homo sapiens, 96 h): > 10000 nM
- Emax (Homo sapiens, 96 h): 50 to 90%

Compound: CN(CCO)S(=O)(=O)Nc1ccc(F)c(Oc2ccc3ncn(C4CC5(CCN(C6CCC(c7ccc(NC8CCC(=O)NC8=O)cc7F)CC6)CC5)C4)c(=O)c3c2)c1C#N (single isomer, unassigned) [Compound 79, 6-[2-cyano-6-fluoro-3-[[2-hydroxyethyl(methyl)sulfamoyl]amino]phenoxy]-3-[7-[4-[4-[(2,6-dioxo-3-piperidyl)amino]-2-fluoro-phenyl]cyclohexyl]-7-azaspiro[3.5]nonan-2-yl]-4-oxo-quinazoline]
- GI50: 1000 to 10000 nM
- Emax (Homo sapiens, 96 h): 50 to 90%

Compound: CO[C@H]1CCN(S(=O)(=O)Nc2ccc(F)c(Oc3ccc4ncn([C@H]5COC6(CCN(C7CCC(c8cc9c(cc8F)c(N8CCC(=O)NC8=O)nn9C)CC7)CC6)C5)c(=O)c4c3)c2C#N)C1 (single isomer, unassigned) [Compound 115]
- GI50 (Homo sapiens, 96 h): < 1000 nM
- Emax (Homo sapiens, 96 h): < 50%

Compound: CCN(C)S(=O)(=O)Nc1ccc(F)c(C(=O)c2ccc3ncn(C4CC5(CCN(C6CCC(c7cc8c(cc7F)c(N7CCC(=O)NC7=O)nn8C)CC6)CC5)C4)c(=O)c3c2)c1F (single isomer, unassigned) [Compound 182, 3-[7-[4-[3-(2,4-dioxohexahydropyrimidin-1-yl)-5-fluoro-1-methyl-indazol-6-yl]cyclohexyl]-7-azaspiro[3.5]nonan-2-yl]-6-[3-[[ethyl(methyl)sulfamoyl]amino]-2,6-difluoro-benzoyl]-4-oxo-quinazoline]
- GI50 (Homo sapiens, 96 h): 1000 to 10000 nM
- Emax (Homo sapiens, 96 h): 50 to 90%

Compound: CCN(C)S(=O)(=O)Nc1ccc(F)c(Oc2ccc3ncn(CC4CCN(C5CCC(c6cc7c(cc6F)c(N6CCC(=O)NC6=O)nn7C)CC5)CC4)c(=O)c3c2)c1C#N (single isomer, unassigned) [Compound 126, 6-[2-cyano-3-[[ethyl(methyl)sulfamoyl]amino]-6-fluoro-phenoxy]-3-[[1-[4-[3-(2,4-dioxohexahydropyrimidin-1-yl)-5-fluoro-1-methyl-indazol-6-yl]cyclohexyl]-4-piperidyl]methyl]-4-oxo-quinazoline]
- GI50 (Homo sapiens, 96 h): 1000 to 10000 nM
- Emax (Homo sapiens, 96 h): 50 to 90%

Compound: CCN(C)S(=O)(=O)Nc1ccc(F)c(Oc2ccc3ncn([C@H]4COC5(CCN(C6CCC(c7cc8c(cc7F)c(N7CCC(=O)NC7=O)nn8C)CC6)CC5)C4)c(=O)c3c2F)c1C#N (single isomer, unassigned) [Compound 41]
- GI50 (Homo sapiens, 96 h): < 1000 nM
- Emax (Homo sapiens, 96 h): < 50%

Compound: CCN(C)S(=O)(=O)Nc1ccc(F)c(Oc2ccc3ncn([C@@H]4COC5(CCN(C6CCC(c7cc8c(cc7F)c(N7CCC(=O)NC7=O)nn8C)CC6)CC5)C4)c(=O)c3c2F)c1C#N (single isomer, unassigned) [Compound 46]
- GI50 (Homo sapiens, 96 h): < 1000 nM
- Emax (Homo sapiens, 96 h): < 50%

— patent publication US20260297060A1, “COMPOUNDS FOR THE DEGRADATION OF MUTANT BRAF” (C4 THERAPEUTICS, INC., priority 2023, published 2026)
